The values that follow come from ChEMBL document CHEMBL1201862, “PubChem BioAssay data set” (2004).

What all share (assay): NCI-60 cell line screen, 48 h
For experiment [1], the system named is OVCAR-5.
Experiment [2] concerns UO-31.
Experiment [3] relates to Hs-578T.
Experiment [4] relates to MCF7.
Experiment [5] has as its system MDA-N.
Experiment [6] relates to SNB-78.
For experiment [7], the system named is T47D.
The subject of experiment [8] is SK-MEL-5.
Experiment [9] has as its system SNB-75.
Experiment [10] concerns DLD-1.
Experiment [11] has as its system XF498.
Experiment [12] concerns SR.
Experiment [13] relates to MDA-MB-231.
Experiment [14] concerns NCI/ADR-RES.
Experiment [15] has as its system SK-MEL-28.
Experiment [16] concerns HL-60.
For experiment [17], the system named is SK-MEL-2.
In experiment [18] the test system is PC-3.
The subject of experiment [19] is MDA-MB-435.
Experiment [20] deals with M19-MEL.

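Briefly, cells in 96-well plates were exposed to five compound concentrations for 48 h, and endpoints were estimated by linear interpolation. GI50 is the concentration that inhibits growth by half.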 The source made the active and inactive calls. No stated cut-off is given here; in the data, active = GI50 up to about 1.1 µM and inactive = higher. Some results are limits rather than exact numbers.

As to `COc1cccc2c1C(=O)c1c(O)c3c(c(O)c1C2=O)C[C@@](O)(C(=O)CO)C[C@@H]3OC1CC(N2CCOCC2)C(O)C(C)O1` (stereo partly specified), the GI50 in experiment [1] was 2.75 nM (active); in [2], 2.5 nM (active); in experiment [3] it was 24.9 nM (active); in [4] it was 2.5 nM (active); in [5], 32.8 nM (active); in experiment [6], 2.5 nM (active). Also, the GI50 in [7] was 57.4 nM (active); in experiment [8], 2.5 nM (active); in [9], 2.5 nM (active); in experiment [10] it was 2.77 nM (active); in experiment [11], 2.5 nM (active); in experiment [12], 4.66 nM (active). Besides, the GI50 in experiment [13] was 55.1 nM (active); in experiment [14], 2.52 nM (active); in [15], 2.7 nM (active); in experiment [16] it was 2.5 nM (active); in experiment [17] it was 2.5 nM (active); in experiment [18], 33 nM (active). The results for the GI50 in experiment [19] and in experiment [20] were 47.8 nM (active) and 5.52 nM (active), respectively.

Take `CN(C)CCNC(=O)c1cc(Cl)cc2ccc(-c3ccccc3)nc12`: the GI50 in experiment [1] was 4840 nM (inactive); in experiment [2], 1910 nM (inactive); in experiment [4] it was 1820 nM (inactive); in experiment [6], 8130 nM (inactive); in experiment [8] it was 1870 nM (inactive); in experiment [9], 1860 nM (inactive). In addition, the GI50 is 3300 nM (inactive) in experiment [10]; 2180 nM (inactive) in experiment [11]; 2510 nM (inactive) in [14]; 4830 nM (inactive) in experiment [15]; 2050 nM (inactive) in experiment [16]; 4850 nM (inactive) in [17]. The GI50 in experiment [20] is 3150 nM (inactive).

As to `COc1cc(CCCOC2OC(COC3OCC(O)C(O)C3O)C(O)C(O)C2O)cc2cc(-c3ccc4c(c3)OCO4)oc12` (stereo unspecified), the GI50 in [1], in experiment [2], in experiment [4], in experiment [6], in [8] and in [9] was > 175000 nM (inactive) throughout. For the same compound, the GI50 in [10], in experiment [11], in experiment [14], in [15], in experiment [16] and in experiment [17] was > 175000 nM (inactive) throughout. In experiment [20], the GI50 is > 175000 nM (inactive).
